Source: patent US20100105745A1, “Suppression of cancer and method for evaluating anticancer agent based on the effect of inhibiting gsk3 beta” (priority 2005, published 2010)

Experiments:
colon cancer cells = experiment: Apoptosis (Hoechst staining) and proliferation (PCNA labeling index) by double staining; assay type: cell-based, human; conditions: for cellular proliferation rates (PCNA labeling index): FIG. 4D; for apoptosis frequency: Hoechst staining, FIG. 4C
Description: (§1) A, B, and E: The number of viable cells in each well as measured by MTS assay at points in time at which the indicated lengths of the time (24, 48, 72, and 96 hours) had elapsed since day 0. C and D: The proportion (D) of proliferating cells' nuclei (PCNA positive) in all the cells observed or the proportion (C) of nuclei undergoing apoptosis in all the cells observed when the cells were subjected to double staining by an immunofluorescence method using an anti-PCNA (proliferating cell nuclear antigen) antibody and Hoechst and then observed under a fluorescence microscope.

HEK293 cells [1] = experiment: as above; assay type: cell-based, human; conditions: for changes in apoptosis frequency: FIG. 4C; for changes in cellular proliferation rates (PCNA labeling index): FIG. 4D
Description: as §1

[2] = system: glioblastoma cell line (A172, T98G, U251, and U87); experiment: WST-8 viable cell assay; assay type: cell-based, human; conditions: 5-50 μM, compared with DMSO, FIGS. 9, 10A
Description: In this example, 4 types of glioblastoma cell line (A172, T98G, U251, and U87 purchased from American Type Culture Collection [ATCC, Manassas, Va.]) and human embryonic kidney cells HEK293 were used as subjects. The expression of GSK3β and the expression of its fractions that had undergone phosphorylation in these cell lines were analyzed in accordance with <Example 1>. Furthermore, the effects of a known GSK3β inhibitor (AR-A014418 or SB-216763) on the survival, proliferation, and apoptosis of tumor cells were analyzed in a manner similar to that in the case of colon cancer cells. […] Number of viable cells and apoptosis frequencies were measured over time. As controls, number of viable cells and apoptosis frequencies were also measured for cells that had been cultured after addition of the same amount of DMSO. In addition, unlike <Example 1>, a WST-8** assay kit (Cell Counting Kit-8, Wako, Osaka) and a microplate reader produced by Bio-Rad Laboratories, Inc. (Hercules, Calif.) were used for measurement of number of viable cells. Furthermore, regarding cell fractions during the proliferation phase, the number of cells incorporating bromodeoxy uridine (BrdU) was measured using a Cell Proliferation ELISA BrdU Kit (Roche, Panzberg, Germany), and then the influence of the GSK3β inhibitor (AR-A014418 or SB-216763) on the proliferation of tumor cells was analyzed.

HEK293 cells [3] = experiment: Cellular senescence by x-gal staining; assay type: cell-based, human; conditions: 25 μM, 72 hours, compared with DMSO
Description: (§2) In accordance with <Example 1>, each colon cancer cell line (SW480 and HCT116) and a non-cancer cell line (human embryonic kidney cells HEK293) were treated with a 25 μM GSK3β inhibitor (AR-A014418 or SB-216763) or GSK3β-specific RNA interference. As controls, DMSO was administered to these cells or the cells were treated with non-specific RNA interference. Subsequently, the frequency of senescent cells in control cells was compared with that in the corresponding cells in which GSK3β had been inhibited and then the result was analyzed. Furthermore, human telomerase reverse transcriptase (hTERT) mRNA expression that is a molecular indication of cell immortalization and changes in telomerase activity in these cells were compared and analyzed over time. Senescent cells were determined as cells found to be positive for x-gal staining that is an indicator of (3-galactosidase activity. Practically, for this staining, cells cultured on cover glasses were washed with phosphate buffered saline (PBS) and then fixed using a citrate.phosphate fixation solution (0.1 M citric acid, 0.2 M Na2HPO4, pH 6.0) at room temperature for 5 minutes. Subsequently, cells were washed twice with PBS and then caused to react using a x-gal staining solution (1 mg/mL x-gal [Sigma-Aldrich], 5 mM K3Fe[CN]6, 2 mM MgCl2, 150 mM NaCl, 30 mM citrate.phosphate buffer, and 5 mM K4Fe[CN]6) at 37° C. for 20 hours. Stained cells were washed with PBS and then fixed again with 4% paraformaldehyde. X-gal staining positive cells were identified by observation under a light microscope. The frequency of senescent cells was determined by observing 5 high-power fields and measuring and calculating the average frequency of x-gal staining positive cells in the total number of cells (approximately 100 cells) in each field.

[4] = system: colon cancer cell line (SW480 and HCT116); experiment: Cellular senescence by x-gal staining; assay type: cell-based, human; conditions: colon cancer cell lines; 25 μM; 72 hours; compared with DMSO; FIGS. 11 and 12
Description: as §2

[5] = system: telomerase activity in colon cancer cell lines (SW480 and HCT116); experiment: Telomerase activity (TRAPEZE Telomerase Detection Kit); assay type: cell-based, human; conditions: 25 μM inhibitor, 72 or 96 hours, FIG. 14
Description: (§3) In accordance with <Example 1>, each colon cancer cell line (SW480 and HCT116) and a non-cancer cell line (human embryonic kidney cells HEK293) were treated with a 25 μM GSK3β inhibitor (AR-A014418 or SB-216763) or GSK3β-specific RNA interference. As controls, DMSO was administered to these cells or the cells were treated with non-specific RNA interference. Subsequently, the frequency of senescent cells in control cells was compared with that in the corresponding cells in which GSK3β had been inhibited and then the result was analyzed. Furthermore, human telomerase reverse transcriptase (hTERT) mRNA expression that is a molecular indication of cell immortalization and changes in telomerase activity in these cells were compared and analyzed over time.
(§4) hTERT mRNA expression was analyzed by extracting total RNA from subject cells and then performing the RT-PCR method. An upstream primer (5′-[…]-3′: SEQ ID NO: 3) and a downstream primer (5′-GGATGAAGCGGAGTCTGGA-3′: SEQ ID NO: 4) were used for RT-PCR. The hTERT gene was amplified by performing 36 or 38 cycles of an RT-PCR program (15 seconds at 94° C., 10 seconds at 55° C., and 9 seconds at 72° C.). Telomerase activity was detected in accordance with recommended protocols using a commercial kit (TRAPEZE® Telomerase Detection Kit, Chemicon International). hTERT expression levels and telomerase activity in GSK3β-inhibited cells and control cells were determined via measurement and quantification of signals on electrophoresis using a densitometer (NIH Image Software), followed by comparison and analysis thereof.

[6] = system: telomerase activity in HEK293 cells; experiment: as above; assay type: cell-based, human; conditions: 25 μM inhibitor, FIG. 14
Description: as §3, §4

[7] = biological target: GSK3β immunoprecipitated from colon cancer cell lines (SW480 and HCT116) (Homo sapiens, UniProt P49841); experiment: Non-radioisotopic in vitro GSK3β enzyme activity assay; assay type: biochemical; conditions: 25 μM, compared with DMSO, FIG. 19
Description: First, a specific anti-GSK3β antibody and beads (resins) are added to a cell extract and then the GSK3β protein is immunoprecipitated (S in FIG. 16). As a negative control (control), non-specific mouse IgG with the same concentration is added to the same type of cell extract (C in FIG. 16). Next, in the presence of a kinase buffer, a recombinant human β-catenin protein (substrate) and nonradioactive ATP (P in FIG. 16) are added, and then a phosphorylation reaction is performed. Subsequently, the reaction solution is analyzed by the Western blot method. A phosphorylated human β-catenin protein is detected using an anti-phosphorylate β-catenin peptides antibody. […] In accordance with the methods in <Example 1>, the protein was extracted from each cell line using a cell lysis buffer (0.2 M Tris-HCl pH 7.5, 1.5 M NaCl, 10 mM EDTA, 10 mM EGTA, 10% Triton X-100, 25 mM sodium pyrophosphate, 10 mM β-glyceophosphate, 10 mM Na3VO4, and Protease inhibitors cocktail [Sigma-Aldrich]). […] Next, GSK3β and the recombinant human β-catenin protein in the reaction solutions were similarly detected by the Western blot method. […] These reaction solutions were similarly analyzed by the Western blot method.

[8] = system: human telomerase reverse transcriptase (hTERT) in HEK293 cells; experiment: hTERT mRNA expression by RT-PCR; assay type: cell-based; conditions: 25 μM inhibitor, FIG. 13
Description: as §3, §4

[9] = system: human telomerase reverse transcriptase (hTERT) in colon cancer cell lines (SW480 and HCT116); experiment: hTERT mRNA expression by RT-PCR; assay type: cell-based; conditions: 25 μM inhibitor, 72 or 96 hours, FIG. 13
Description: as §3, §4

[10] = system: glioblastoma cell line (A172, T98G, U251, and U87); experiment: Apoptosis frequency; assay type: cell-based, human; conditions: glioblastoma cells; compared with DMSO; FIG. 10B
Description: (§5) In this example, 4 types of glioblastoma cell line (A172, T98G, U251, and U87 purchased from American Type Culture Collection [ATCC, Manassas, Va.]) and human embryonic kidney cells HEK293 were used as subjects. The expression of GSK3β and the expression of its fractions that had undergone phosphorylation in these cell lines were analyzed in accordance with <Example 1>. Furthermore, the effects of a known GSK3β inhibitor (AR-A014418 or SB-216763) on the survival, proliferation, and apoptosis of tumor cells were analyzed in a manner similar to that in the case of colon cancer cells. Each cell line was cultured overnight and then cultured in medium to which AR-A014418 or SB-216763 dissolved in DMSO had been added to predetermined concentrations (5 μM, 10 μM, 25 μM or 40 μM, and 50 μM). Number of viable cells and apoptosis frequencies were measured over time. As controls, number of viable cells and apoptosis frequencies were also measured for cells that had been cultured after addition of the same amount of DMSO. In addition, unlike <Example 1>, a WST-8** assay kit (Cell Counting Kit-8, Wako, Osaka) and a microplate reader produced by Bio-Rad Laboratories, Inc. (Hercules, Calif.) were used for measurement of number of viable cells. Furthermore, regarding cell fractions during the proliferation phase, the number of cells incorporating bromodeoxy uridine (BrdU) was measured using a Cell Proliferation ELISA BrdU Kit (Roche, Panzberg, Germany), and then the influence of the GSK3β inhibitor (AR-A014418 or SB-216763) on the proliferation of tumor cells was analyzed.

HEK293 cells [11] = experiment: Apoptosis frequency; assay type: cell-based, human; conditions: compared with DMSO, FIG. 10B
Description: as §5

[12] = system: glioblastoma cell line (A172, T98G, U251, and U87); experiment: Cell Proliferation ELISA BrdU incorporation; assay type: cell-based, human; conditions: glioblastoma cells; FIG. 10C
Description: Each cell line was cultured overnight and then cultured in medium to which AR-A014418 or SB-216763 dissolved in DMSO had been added to predetermined concentrations (5 μM, 10 μM, 25 μM or 40 μM, and 50 μM). Number of viable cells and apoptosis frequencies were measured over time. As controls, number of viable cells and apoptosis frequencies were also measured for cells that had been cultured after addition of the same amount of DMSO. In addition, unlike <Example 1>, a WST-8** assay kit (Cell Counting Kit-8, Wako, Osaka) and a microplate reader produced by Bio-Rad Laboratories, Inc. (Hercules, Calif.) were used for measurement of number of viable cells. Furthermore, regarding cell fractions during the proliferation phase, the number of cells incorporating bromodeoxy uridine (BrdU) was measured using a Cell Proliferation ELISA BrdU Kit (Roche, Panzberg, Germany), and then the influence of the GSK3β inhibitor (AR-A014418 or SB-216763) on the proliferation of tumor cells was analyzed.

[13] = system: Colon cancer cell lines (SW480 and HCT116); experiment: MTS viable cell assay (cell survival); assay type: cell-based, human; conditions: 5, 10, 25, and 50 μM, 24-96 hours, FIG. 4A
Description: (§6) Each colon cancer cell line and HEK293 cells were seeded at 3×10^3 cells per well of 96-well culture plates and then cultured overnight in corresponding media (this day was designated day 0). Known GSK3β inhibitors, AR-A014418 (N-(4-methoxybenzyl)-N′-(5-nitro-1,3-thiazol-2-yl)urea, Calbiochem) and SB-216763 (3-(2,4-dichlorophenyl)-4-(1-methyl-1H-indol-3-yl)-1H-pyrrole-2,5-dione, Sigma-Aldrich) were dissolved in dimethyl sulfoxide (DMSO). On day 0, the medium for each cell line were exchanged and then AR-A014418 or SB-216763 was added to the medium to different concentrations (5, 10, 25, and 50 μM). As controls, samples prepared by adding AR-A014418 or SB-216763 to the same concentrations to wells containing no cells and a sample prepared by adding DMSO alone to a well containing cells were analyzed simultaneously.
(§7) At time points after indicated lengths of the times (24, 48, 72, and 96 hours) had elapsed from day 0, the number of viable cells in each well was measured using an MTS* viable cell measurement kit (CellTiter 96™ Aqueous, Promega Corp) in accordance with the protocols of Promega. Practically, 20 μL of an MTS mixture solution that had been prepared immediately before addition was added to each well, followed by three hours of reaction at 37° C. under 5% CO2 wet conditions. Absorbance at a wavelength of 490 nm was measured using a THERMOmax microplate reader (Molecular Devices). The number of cells of each cell line (in 6 wells for treatment by each concentration of AR-A014418 or SB-216763) was measured, and the average absorbance was calculated to determine the number of viable cells.

HEK293 cells [14] = experiment: MTS viable cell assay (cell survival); assay type: cell-based, human; conditions: FIG. 4A
Description: as §6, §7

Sequence of GSK3β immunoprecipitated from colon cancer cell lines (SW480 and HCT116) (P49841 whole entry): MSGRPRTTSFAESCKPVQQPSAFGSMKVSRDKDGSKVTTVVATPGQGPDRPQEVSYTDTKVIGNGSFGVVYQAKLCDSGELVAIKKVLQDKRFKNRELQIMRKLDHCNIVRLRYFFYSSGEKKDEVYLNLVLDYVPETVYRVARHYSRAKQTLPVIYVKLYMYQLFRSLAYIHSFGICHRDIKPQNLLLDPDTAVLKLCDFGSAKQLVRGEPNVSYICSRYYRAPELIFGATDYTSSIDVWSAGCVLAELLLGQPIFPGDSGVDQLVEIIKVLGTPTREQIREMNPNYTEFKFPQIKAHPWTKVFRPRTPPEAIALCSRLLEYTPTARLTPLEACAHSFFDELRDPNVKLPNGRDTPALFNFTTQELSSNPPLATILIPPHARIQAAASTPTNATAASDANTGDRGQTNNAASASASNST

GSK3β activity (phosphorylation of recombinant human β-catenin) [7] | Compound | cellular proliferation rates (PCNA labeling index) (colon cancer cells) | apoptosis frequency (colon cancer cells) | changes in apoptosis frequency (HEK293 cells [1]) | changes in cellular proliferation rates (PCNA labeling index) (HEK293 cells [1]) | number of viable cells [2] | frequency of senescent cells (x-gal staining positive) (HEK293 cells [3]) | frequencies of senescent cells (x-gal staining positive) [4] | telomerase activity [5] | telomerase activity [6] | hTERT expression [8] | hTERT expression [9] | apoptosis [10] | apoptosis (HEK293 cells [11]) | proliferation (BrdU incorporated) [12] | survival (rate) of cells [13] | effect to suppress cell survival (HEK293 cells [14])
completely inhibited | COc1ccc(CNC(=O)Nc2ncc([N+](=O)[O-])s2)cc1 [AR-A014418, N-(4-methoxybenzyl)-N′-(5-nitro-1,3-thiazol-2-yl)urea] | lowered | increased | minimal | minimal | decreased in a manner depending on the concentration of each inhibitor | no significant differences | significantly increased | suppressed | nor suppression of telomerase activity | neither changes in hTERT expression | suppressed | significantly induced | mildly induced by the addition of the GSK3β inhibitor to the medium, but no significant differences were observed | suppressed | decreased in a manner depending on the dose | not observed
completely inhibited | Cn1cc(C2=C(c3ccc(Cl)cc3Cl)C(=O)NC2=O)c2ccccc21 [SB-216763, 3-(2,4-Dichlorophenyl)-4-(1-methyl-1H-indol-3-yl)-1H-pyrrole-2,5-dione] | lowered | increased | minimal | minimal | decreased in a manner depending on the concentration of each inhibitor | no significant differences | significantly increased | suppressed | nor suppression of telomerase activity | neither changes in hTERT expression | suppressed | significantly induced | mildly induced by the addition of the GSK3β inhibitor to the medium, but no significant differences were observed | suppressed | decreased in a manner depending on the dose | not observed
